Laboratory results taken from patent publication US10968188B2, “Benzothiazol compounds and methods using the same for treating neurodegenerative disorders” (1ST Biotherapeutics, Inc., priority 2017, dated 2021).

Experiments:
[1] = system: α-synuclein PFF induced PD mice; test: Pole test in α-synuclein PFF induced PD mice; assay type: in vivo
Aβ25-35 induced AD mice [2] = test: Y-maze spontaneous alternation in Aβ25-35 induced AD mice; assay type: in vivo; conditions: orally once daily for 10 days; Example 4 1, 3 and 10 mg/kg, nilotinib 3 mg/kg
lipid peroxidation = test: Lipid peroxidation in hippocampus homogenates of Aβ25-35 induced AD mice; assay type: in vivo; conditions: once daily oral dosing of 3 mg/kg and 10 mg/kg
Text: Y-maze test as a behavioral test was used to assess memory function and the willingness of rodents to explore new environments 10 Days after ICV injection of oligomeric Aβ25-35 peptide, the hippocampus was dissected out. And lipid peroxidation level was quantified in the hippocampus homogenates. ICV injection of oligomeric Aβ25-35 peptide induced lipid peroxidation, a marker for oxidative stress. […] (FIG. 7)

[3] = Oral dose pharmacokinetic study in mice
Aβ25-35 induced AD mice [4] = test: Step-through passive avoidance (STPA) test in Aβ25-35 induced AD mice; assay type: in vivo; conditions: orally once daily for 10 days; Example 4 1, 3 and 10 mg/kg, nilotinib 3 mg/kg

| Compound | pole climb down time ([1]; 10 mg/kg orally once daily for 5 months) | deficits of alternation behavior (spatial working memory, Y-maze) (Aβ25-35 induced AD mice [2]) | lipid peroxidation in hippocampus (lipid peroxidation) | increased pole climb down time (sec) by α-synuclein PFF injection ([1]; 0.3, 1, 3 and 10 mg/kg orally once daily for 5 months) | PK profile in mice [3] | contextual long-term memory deficits (STPA) (Aβ25-35 induced AD mice [4]) |
| --- | --- | --- | --- | --- | --- | --- |
| Cc1cn(-c2cc(NC(=O)c3ccc(C)c(Nc4nccc(-c5cccnc5)n4)c3)cc(C(F)(F)F)c2)cn1 [Nilotinib, nilotinib, reference compound] | slight improvement | partially alleviated |  |  |  |  |
| Cc1ccncc1-c1ccc2nc(NC(=O)[C@@H]3C[C@@H]3F)sc2c1 [Example 4] |  | very significantly and fully alleviated | completely inhibited | recovered by treatment of Example 4 in a dose-dependent manner | good PK profiles | very significantly and fully alleviated |
